Experimental data: paper PMC6771786, “Closing the gap: yeast electron‐transferring flavoprotein links the oxidation of D‐lactate and D‐α‐hydroxyglutarate to energy production via the respiratory chain” (The Febs Journal, 2019)
Numbering of substitutions follows the chain as printed. Names may count otherwise. One block for each molecule: values may come before it.

Tests used:
[1] = target: T1, Dld2 (D-lactate dehydrogenase 2) (Saccharomyces cerevisiae, UniProt P46681); assay: stopped-flow flavin reduction, hyperbolic fit; type: biochemical; details: anaerobic reductive half reaction; 50 mM HEPES, 150 mM NaCl pH 7, 25 °C; 450 nm; fast (first) phase of reduction
T1 construct: produced in Komagataella phaffii KM71H, purified
T1 sequence (P46681 1-530): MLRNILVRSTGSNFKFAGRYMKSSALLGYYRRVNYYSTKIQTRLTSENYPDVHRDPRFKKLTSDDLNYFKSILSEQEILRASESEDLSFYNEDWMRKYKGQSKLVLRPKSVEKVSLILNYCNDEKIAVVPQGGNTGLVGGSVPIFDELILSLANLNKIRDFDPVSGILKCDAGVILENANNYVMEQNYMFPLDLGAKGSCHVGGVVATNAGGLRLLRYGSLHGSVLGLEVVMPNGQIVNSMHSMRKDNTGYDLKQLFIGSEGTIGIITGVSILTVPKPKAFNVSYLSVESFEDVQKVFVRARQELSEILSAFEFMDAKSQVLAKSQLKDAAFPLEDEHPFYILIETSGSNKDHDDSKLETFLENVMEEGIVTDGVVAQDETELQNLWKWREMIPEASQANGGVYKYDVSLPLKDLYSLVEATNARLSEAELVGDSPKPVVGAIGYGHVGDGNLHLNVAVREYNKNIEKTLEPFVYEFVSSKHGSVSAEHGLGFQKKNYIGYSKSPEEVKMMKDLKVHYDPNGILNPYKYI
Source text: stopped-flow flavin reduction, hyperbolic fit on Dld2 (D-lactate dehydrogenase 2)

[2] = target: T2, hETF (ETF from Homo sapiens) (Homo sapiens, UniProt P13804+P38117, P38117:Y16F); assay: UV-visible photoreduction of bound flavin; type: binding; details: co-purified cofactor; 50 mM HEPES pH 7, 1 mM DTT, anaerobic
T2 construct: gene ETFA
T2 sequence (P13804 20-333): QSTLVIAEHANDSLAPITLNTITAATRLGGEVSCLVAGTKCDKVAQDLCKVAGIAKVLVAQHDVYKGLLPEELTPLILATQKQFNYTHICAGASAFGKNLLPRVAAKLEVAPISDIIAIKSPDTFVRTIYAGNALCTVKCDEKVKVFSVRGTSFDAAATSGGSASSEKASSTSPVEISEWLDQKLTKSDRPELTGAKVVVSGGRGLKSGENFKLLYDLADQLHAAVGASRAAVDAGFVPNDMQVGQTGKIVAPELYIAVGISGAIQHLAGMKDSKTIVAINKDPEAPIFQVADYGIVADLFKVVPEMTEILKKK
T2 sequence (P38117 2-255 Y16F): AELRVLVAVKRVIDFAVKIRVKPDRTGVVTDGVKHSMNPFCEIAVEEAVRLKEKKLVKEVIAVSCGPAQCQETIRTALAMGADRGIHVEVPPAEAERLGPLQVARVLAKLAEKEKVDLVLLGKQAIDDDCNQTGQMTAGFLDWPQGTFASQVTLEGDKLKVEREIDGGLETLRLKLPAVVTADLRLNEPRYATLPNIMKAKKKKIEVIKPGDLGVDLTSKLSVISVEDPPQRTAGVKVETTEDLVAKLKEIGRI

[3] = target: T3, hETF (ETF from Homo sapiens) (Homo sapiens, UniProt P13804+P38117); assay: UV-visible photoreduction of bound flavin; type: binding; details: co-purified cofactor; 50 mM HEPES pH 7, 1 mM DTT, anaerobic
T3 construct: gene ETFA
T3 sequence (P13804 20-333): T2 sequence (P13804 20-333)
T3 sequence (P38117 2-255): T2 sequence (P38117 2-255 Y16F) with F15Y

[4] = target: T4, yETF (electron-transferring flavoprotein of Saccharomyces cerevisiae) (Saccharomyces cerevisiae, UniProt P42940+Q12480); assay: UV-visible spectrum, native vs SDS-denatured; HPLC-DAD; type: binding; details: co-purified cofactor; 50 mM HEPES pH 7, 1 mM DTT, 25 °C
T4 construct: gene AIM45; heterodimer (alpha 38 kDa, beta 37 kDa), N-terminal hexahistidine tag on beta subunit (pETM11-His TEV), produced in E. coli Rosetta (DE3)-pLysS
T4 sequence (Q12480 15-344): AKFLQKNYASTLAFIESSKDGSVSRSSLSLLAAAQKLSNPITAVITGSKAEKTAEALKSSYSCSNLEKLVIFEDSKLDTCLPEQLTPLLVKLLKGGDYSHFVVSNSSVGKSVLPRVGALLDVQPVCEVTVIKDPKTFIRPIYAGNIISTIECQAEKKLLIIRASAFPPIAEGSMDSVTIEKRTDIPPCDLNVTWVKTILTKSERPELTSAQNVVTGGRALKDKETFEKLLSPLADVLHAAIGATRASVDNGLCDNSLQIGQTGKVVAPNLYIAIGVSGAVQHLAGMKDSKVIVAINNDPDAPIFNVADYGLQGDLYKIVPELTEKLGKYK
T4 sequence (P42940 1-261): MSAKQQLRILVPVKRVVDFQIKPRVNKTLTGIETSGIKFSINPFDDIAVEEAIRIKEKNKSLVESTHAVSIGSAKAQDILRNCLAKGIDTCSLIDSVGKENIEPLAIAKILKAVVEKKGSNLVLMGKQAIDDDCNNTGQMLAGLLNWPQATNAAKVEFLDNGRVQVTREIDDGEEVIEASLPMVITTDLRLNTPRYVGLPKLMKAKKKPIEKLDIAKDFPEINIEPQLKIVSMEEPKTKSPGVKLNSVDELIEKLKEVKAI

purified protein = substrate: O=C(O)CC[C@@H](O)C(=O)O; assay: purified protein; type: biochemical, Saccharomyces cerevisiae; details: 125 µM 2,6-dichlorophenol indophenol as acceptor, aerobic, 50 mM HEPES, 150 mM NaCl pH 7, 25 °C, apparent

- Kd [1]: 15 ± 1 mM
Molecule: C[C@@H](O)C(=O)O [D‐lactate]

Molecule: Cc1cc2nc3c(=O)[nH]c(=O)nc-3n(C[C@H](O)[C@H](O)[C@H](O)COP(=O)(O)OP(=O)(O)OC[C@H]3O[C@@H](n4cnc5c(N)ncnc54)[C@H](O)[C@@H]3O)c2cc1C [FAD]
- UV-visible photoreduction of bound flavin [2]: hETF‐βTyr16Phe (D) in the course of the photoreduction: oxidized FAD
- UV-visible photoreduction of bound flavin [3]: hETF wild‐type (C), and hETF‐βTyr16Phe (D) in the course of the photoreduction: oxidized FAD
- UV-visible spectrum, native vs SDS-denatured; HPLC-DAD [4]: absorption spectrum of denatured yETF further indicate the presence of an FAD chromophore

B1: Dld2 (D-lactate dehydrogenase 2) (Saccharomyces cerevisiae S288C) (protein)
chain: T1 sequence (P46681 1-530)
notes: produced in Komagataella phaffii KM71H, purified
- Km (purified protein): 350 ± 50 µM
- kcat (purified protein): 0.42 ± 0.02 s⁻¹
- kcat/Km (purified protein): 1200 ± 300 M⁻¹ s⁻¹
